pIC50: −log10 of the molar value.

For the assay, the system named is PDE4. In words: PDE4 inhibition, scintillation proximity assay (SPA).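 Also: A below 100 nM B 100 to below 1000 nM C 1000 nM or more.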 The format is biochemical. To be noted: scintillation proximity assay (SPA); evaluated as classes A, B, C; read-out: PDE4 Inhibitory Activity (concentration for the inhibition rate of 50%). The procedure:
The PDE4 inhibitory activity was measured using scintillation proximity assay (SPA) as follows. A sample compound dissolved in dimethyl sulfoxide was diluted 1:10 in reaction buffer solution which contained 50 mM of Tris-HCl with pH 7.4, 8.3 mM of MgCl2, 1.7 mM of EGTA, and 3 mg/mL of bovine serum albumin (BSA). Then, 10 μL of the diluted solution was added in a 96-well assay plate. Moreover, 50 μL of PDE4 diluted 1:375 in the reaction buffer solution was added, and then 40 μL of [2,8-^3H]-adenosine-3′,5′-cyclic phosphate triethylammonium salt diluted 1:1000 in the reaction buffer solution was added. The mixture was allowed to stand at room temperature for 120 minutes. Thereafter, […] of RNA binding YSi-SPA beads suspension containing ZnSO4 was added and the mixture was allowed to stand at room temperature for 15 minutes, followed by adsorption of the enzyme reaction product to the beads. After that, the radioactivity was measured using a liquid scintillation counter for a 96-well plate. The mixture without the enzyme preparation added but only the reaction buffer solution added is a blank, and the mixture with the enzyme preparation added and only dimethyl sulfoxide added instead of the sample solution is a control.
In general terms: In a scintillation proximity assay essentially only radioactivity close to the scintillant gives light.
In the case of `CCOC(=O)c1ccc(-c2nccs2)c2oc(N3CC4CC(C3)N4)nc12` [Example 113, Ethyl 2-(3,6-diazabicyclo[3.1.1]heptan-3-yl)-7-(thiazol-2-yl)benzo[d]oxazole-4-carboxylate], the pIC50 was above 7.00. For `CC(C)(O)c1cc(-c2nccs2)c2oc(N3CC4CCC(C3)N4)nc2c1OC(F)(F)F` [Example 195, 2-(2-(3,8-Diazabicyclo[3.2.1]octan-3-yl)-7-(thiazol-2-yl)-4-(trifluoromethoxy)benzo[d]oxazol-5-yl)propan-2-ol], the pIC50 was above 7.00. Next, `OCc1cc(-c2nccs2)c2oc(N3CC4CCC(C3)N4)nc2c1OC(F)(F)F` [Example 201, (2-(3,8-Diazabicyclo[3.2.1]octan-3-yl)-7-(thiazol-2-yl)-4-(trifluoromethoxy)benzo[d]oxazol-5-yl)methanol]: above 7.00; `Oc1ccc(-c2nccs2)c2oc(N3CC4CCC(C3)N4)nc12` [Example 78, 2-(3,8-Diazabicyclo[3.2.1]octan-3-yl)-7-(thiazol-2-yl) benzo[d]oxazol-4-ol]: above 7.00; `Clc1ccc(-c2nccs2)c2oc(N3CC4CC(C3)N4)nc12` [Example 37, 2-(3,6-Diazabicyclo[3.1.1]heptan-3-yl)-4-chloro-7-(thiazol-2-yl)benzo[d]oxazole]: above 7.00.

For the compound `CC(O)c1ccc(-c2nccs2)c2oc(N3CC4CCC(C3)N4)nc12` (centres unmarked) [Example 124, 1-(2-(3,8-Diazabicyclo[3.2.1]octan-3-yl)-7-(thiazol-2-yl)benzo[d]oxazol-4-yl)ethan-1-ol], the pIC50 is above 7.00.

Regarding `CC(C)(O)c1cc(-c2nccs2)c2oc(N3CC4CC(C3)N4)nc2c1OC(F)(F)F` [Example 196, 2-(2-(3,6-Diazabicyclo[3.1.1]heptan-3-yl)-7-(thiazol-2-yl)-4-(trifluoromethoxy)benzo[d]oxazol-5-yl)propan-2-ol], the pIC50 was above 7.00. Under `CCOC(=O)c1cc(-c2nccs2)c2oc(N3CC4CCC(C3)N4)nc2c1` [Example 86, Ethyl 2-(3,8-diazabicyclo[3.2.1]octan-3-yl)-7-(thiazol-2-yl) benzo[d]oxazole-5-carboxylate] stands above 7.00; under `CCOC(=O)c1ccc(-c2nccs2)c2oc(N3CC4CCC(C3)N4)nc12` [Example 112, Ethyl 2-(3,8-diazabicyclo[3.2.1]octan-3-yl)-7-(thiazol-2-yl) benzo[d]oxazole-4-carboxylate], above 7.00; under `CCOC(=O)c1cc(-c2nccs2)c2oc(N3CC4CC(C3)N4)nc2c1OC(F)(F)F` [Example 187, Ethyl 2-(3,6-diazabicyclo[3.1.1]heptan-3-yl)-7-(thiazol-2-yl)-4-(trifluoromethoxy)benzo[d]oxazole-5-carboxylate], above 7.00.

Consider `FC(F)(F)c1c(Cl)cc(-c2ccccn2)c2oc(N3CC4CCC(C3)N4)nc12` [Example 11, 2-(3,8-Diazabicyclo[3.2.1]octan-3-yl)-5-chloro-7-(pyridin-2-yl)-4-(trifluoromethyl)benzo[d]oxazole], for which the pIC50 was above 7.00.

Take `O=C(O)COC(c1ccc(-c2nccs2)c2oc(N3CC4CC(C3)N4)nc12)C(F)(F)F` (centres unmarked) [Example 253, 2-(1-(2-(3,6-Diazabicyclo[3.1.1]heptan-3-yl)-7-(thiazol-2-yl)benzo[d]oxazol-4-yl)-2,2,2-trifluoroethoxy)acetic acid]: the pIC50 was above 7.00.

In the case of `FC(F)(F)c1c(Cl)cc(-c2ccccn2)c2oc(N3CC4COCC(C3)N4)nc12` [Example 14, 7-(5-Chloro-7-(pyridin-2-yl)-4-(trifluoromethyl)benzo[d]oxazol-2-yl)-3-oxa-7,9-diazabicyclo[3.3.1]nonane], the pIC50 was 6.00 to 7.00. Under `CC(C)(O)COc1ccc(-c2nccs2)c2oc(N3CC4CCC(C3)N4)nc12` [Example 264, 1-((2-(3,8-Diazabicyclo[3.2.1]octan-3-yl)-7-(thiazol-2-yl)benzo[d]oxazol-4-yl)oxy)-2-methylpropan-2-ol] stands above 7.00.

For the origin of these results see patent US10669283B2, “Compound and pharmacologically acceptable salt thereof” (MEIJI SEIKA PHARMA CO., LTD., priority 2016, dated 2020).
